Laboratory results reported in paper PMC4540712, “Development of a clickable bimodal fluorescent/PET probe for in vivo imaging” (EJNMMI Research, 2015).
Starred links: 1 amine or outer side, 2 acyl side, 3 side chain; linkers in the order of their positions; H or OH if unused. Non-standard residues stand in square brackets, D forms with d. Residues, ends and D or L forms follow the SMILES beside them. *: point of attachment. BODIPY(FL) = CC1=CC(C)=[N+]2C1=Cc1ccc(CCC(=O)*)n1[B-]2(F)F; X1 = O=C(CCc1cn(CCOCCOCCOCCN[*:1])nn1)[*:2]; Sta = CC(C)C[C@H](N)[C@@H](O)CC(=O)O; X2 = O=C(CN1CCC(N[*:1])CC1)[*:2]

What was measured:
[1] = stability in human serum; assay type: in vitro ADME; conditions: 37 °C, after 60 min of incubation, time points 0, 15, 30, 45, 60 min, fluorescence read-out
Procedure: (§1) The binding of BODIPY-BBN 5 toward GRP receptor overexpressing PC-3 cells was evaluated in confocal live-cell imaging (Fig. 4a). After incubation of BODIPY-BBN 5 (10 nM, 30 min), cells were treated with blue whole cell stain (5 min) and washed with PBS. […] We also confirmed the binding affinity of BODIPY-BBN 5 using [^125I-Tyr^4]bombesin in a competitive binding assay (Fig. 4b). […] We then determined the stability of our imaging tracer in human serum (37 °C) at pre-determined time points showing >90 % intact fluorescent imaging agent after 60 min of incubation (Additional file 1: Figure S6).
Figure S6: Percent intact fluorescent ^19F-BODIPY-BBN in human serum at different time points (0, 15, 30, 45, and 60 min) after incubation at 37 °C.

[2] = molecular target: T1, GRP receptor overexpressing PC-3 cells (Homo sapiens, UniProt P30550); test: confocal live-cell imaging of uptake and blocking in PC-3 cells; assay type: cell-based; conditions: 37 °C, 30 min
T1 construct: host or cells: PC-3 (human prostate cancer cell line)
T1 sequence (P30550 whole entry): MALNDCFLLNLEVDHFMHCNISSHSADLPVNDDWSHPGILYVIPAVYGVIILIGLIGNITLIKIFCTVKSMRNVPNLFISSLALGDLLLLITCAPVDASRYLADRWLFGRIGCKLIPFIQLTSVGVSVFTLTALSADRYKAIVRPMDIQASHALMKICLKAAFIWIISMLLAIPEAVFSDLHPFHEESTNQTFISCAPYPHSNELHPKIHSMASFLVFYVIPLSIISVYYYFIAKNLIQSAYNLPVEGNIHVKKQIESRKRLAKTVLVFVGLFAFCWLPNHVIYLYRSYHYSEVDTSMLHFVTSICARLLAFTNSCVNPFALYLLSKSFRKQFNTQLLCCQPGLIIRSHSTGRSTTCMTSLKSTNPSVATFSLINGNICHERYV
Procedure: To determine BODIPY-BBN uptake in vitro, PC-3 cells (1.0 × 10^4 per well) were seeded in a two-well chamber slide (Nunc™ Lab-Tek™ II Chamber Slide™ System) containing growth media (1 mL) and incubated at 37 °C for 24 h. To study the uptake of BODIPY-BBN, PC-3 cells were incubated with 5 (10 nM in PBS, 37 °C for 30 min). At the same time blocking studies were performed. PC-3 cells were pre-incubated with RM2 (1000 nM in PBS, 37 °C for 5 min) before incubation with BODIPY-BBN (10 nM in PBS, 37 °C for 30 min). After washing with media (1.0 mL), blue whole cell stain was added and incubated at room temperature for 5 min. The cells were washed with PBS (3 × 1.0 mL), living cells were imaged using an inverted confocal microscope (Leica TCS SP5 II), and data were analyzed with Fiji.
as §1

Cc1cc(C)n2c1C=C1C=CC(CCC(=O)NCCOCCOCCOCCn3cc(CCC(=O)NC4CCN(CC(=O)N[C@H](Cc5ccccc5)C(=O)N[C@@H](CCC(N)=O)C(=O)N[C@@H](Cc5c[nH]c6ccccc56)C(=O)N[C@@H](C)C(=O)N[C@H](C(=O)NCC(=O)N[C@@H](Cc5c[nH]cn5)C(=O)N[C@@H](CC(C)C)[C@@H](O)CC(=O)N[C@@H](CC(C)C)C(N)=O)C(C)C)CC4)nn3)=[N+]1[B-]2(F)F [BODIPY-BBN 5] ({BODIPY(FL)}-[X1][X2][dF]QWAVGH[Sta]L-NH2)
intact fluorescent imaging agent in human serum [1]: > 90% | fluorescent signal after blocking (GRP receptor specificity) ([2]; PC-3 cells pre-incubated with 100-fold excess of unlabeled GRP receptor antagonist (1000 nM, 5 min), then 10 nM probe): complete suppression of green fluorescent signal | binding in confocal live-cell imaging ([2]; PC-3 cells, 10 nM in PBS, green fluorescence): antagonist-specific binding
